Experimental data from US20250346643A1, “TROPOMYOSIN KINASE RECEPTOR (TRK) LIGANDS AS THERAPEUTICS TO SUPPORT LIVER REGENERATION” (Vanderbilt University, priority 2024, published 2025).

Tested on: HSC-depleted mice (liver)
Assay: Treatment of HSC-depleted mice with recombinant NTF3
Format: in vivo, mouse
Description: T cell isolation and adoptive transfer. CD8+ T cells were isolated from spleen and lymph nodes (brachial, inguinal, axillar, submandibular, superficial cervical and mesenteric) of Jedi and controls. Spleens and lymph nodes were collected in ice cold T cell media (RPMI [Gibco® 11875-093] supplemented by 10% FBS, 2 mM L-glutamine [Thermo Fisher Scientific, Waltham, MA; 25030-081], 1% MEM nonessential amino acids [Thermo Fisher Scientific, Waltham, MA; 11140050] and 1 mM sodium pyruvate [Thermo Fisher Scientific, Waltham, MA; 11360-070]). Spleen and lymph nodes were mechanically homogenized and filtered through a 70 μm cell strainer (Falcon®). The cell suspension was centrifuged for 10 min at 4° C., 300 g. Red blood cell (RBC) lysis was performed with RBC buffer (Thermo Fisher Scientific, Waltham, MA; A10492). Cells were then washed with T cell media, filtered through a 70 μm cell strainer and centrifuged for 10 min at 4° C., 300 g. The cell pellet was then resuspended in flow buffer (PBS, pH 7.4, 2 mM EDTA, 0.05% BSA) and CD8+ T cells enriched using the mouse CD8+ T cell isolation kit (STEMCELL technologies, Vancouver, Canada; 19853A) according to the manufacturer's instructions. Enriched CD8+ T cells were centrifuged for 10 min at 4° C., 300 g, and resuspended in PBS. Mice with less than 25 g body weight were injected with up to 12 million Jedi T cells and mice greater than 25 g body weight were injected by tail vein injection with 18 million Jedi T cells. Control mice were injected with either T cells from H-2K^d mice or with vehicle only. Mice were not injected with lentiviral GFP particles as previously described (Agudo et al., Nat Biotechnol. 2015; 33(12): 1287-1292; Agudo et al., 2018; 48(2): 271-285.e5) to avoid lentiviral GFP-expression of other cells such as hepatocytes.
Treatment with recombinant NTF3. Four months old mice were injected via tail vein for 4 consecutive days with recombinant NTF3 (STEMCELL technology, Vancouver, Canada; cat. 78074, lots 1000070683, 1000077434) diluted in sterile 0.9% saline (0.9% NaCl) or vehicle only. Mice were weighed daily and recombinant NTF3 given at 20 ng/g body weight or 100 ng/g body weight, respectively. Lyophilized NTF3 was solubilized in 0.1% BSA/PBS (bovine serum albumin, Sigma-Aldrich, St. Louis, MO; A3059) and stored at −80° C. until use.
Immunohistochemistry. For immunohistochemistry, formalin-fixed paraffin embedded sections were cut at 4 μm thickness and slides incubated at 65° C. for 30 min. Slides were deparaffinized in Histo-Clear® (National Diagnostics, Charlotte, NC; HS2001GLL) and rehydrated by an ethanol gradient. Heat antigen retrieval was performed in 10 mM sodium citrate (pH 6.0) in a pressure cooker (Cuisinart®, CPC-600C), 20 min at high-pressure, natural pressure release for 30 min, and cooled at room temperature (i.e., about 20° C. to about 22° C.) for 30 min. Endogenous peroxidase quenching was performed with 1.5% hydrogen peroxide (Sigma-Aldrich, St. Louis, MO; H1009) for 20 min, and slides washed twice in phosphate buffered saline (PBS) twice. Blocking was performed for 30 min with Protein Block, Serum-free (Agilent, Santa Clara, CA; X090930-2). The primary antibody (TABLE 1) was diluted in antibody diluent (Agilent, Santa Clara, CA; S080983-2) and applied to the slides in a wet chamber overnight at 4° C. After 2 washes in PBS, slides were incubated with the appropriate secondary antibody (TABLE 1) for 30 min followed by two washes in PBS. […] The same reveal time was then used on all experimental slides. Slides were stained with hematoxylin (Sigma-Aldrich, St. Louis, MO; GHS332) for 30 sec, washed gently in lukewarm tap water for 5 min, and washed twice in distilled water, followed by two washes in phosphate buffered saline (PBS, pH 7.4). Slides were washed in increasing ethanol/water gradients, followed by three washes in Histo-Clear®. […]

NTF3: neurotrophin-3, recombinant protein; HSC-derived hepatocyte mitogen, ligand of TRKA, TRKB, TRKC
IGFBP2 expression in hepatocytes (HSC-ablated mice, NTF3): only increased CCND1 but not IGFBP2 expression
liver-to-body weight ratio (HSC-depleted mice, NTF3 20 ng/g or 100 ng/g body weight, tail vein, 4 consecutive days (FIG. 10C)): dose-dependently increased
liver-to-body weight ratio, higher dose group (HSC-depleted mice, NTF3 100 ng/g body weight, 4 consecutive days): significant increase
number of CCND1+HNF4a+ nuclei (multiplex immunohistochemistry) (HSC-depleted mice, NTF3 20 or 100 ng/g (FIG. 10E-F)): dose-dependently increased
nuclear CCND1 in hepatocytes in the midlobular region (staining) (HSC-depleted mice, NTF3 vs vehicle (FIG. 10D)): increased nuclear CCND1
Ki67+ hepatocytes (HSC-depleted mice, NTF3 vs vehicle (FIG. 10G-H)): increase
PCNA in whole liver lysates (Western blotting) (HSC-depleted mice, NTF3 vs vehicle (FIG. 10I, 11B)): increased
CCND1 in whole liver lysates (Western blotting) (HSC-depleted mice, NTF3 vs vehicle (FIG. 10I, 11C)): increased
